According to PMC9227305, “Photoinduced Synthesis of Methylated Marine Cyclopeptide Galaxamide Analogs with Isoindolinone as Anticancer Agents” (Marine Drugs, 2022):
Like-named read-outs stand apart in the source and are kept apart here. *1 amine or outer side, *2 acyl side, *3 side chain or, on linkers, in order; H or OH if unused. Where a SMILES comes first, the peptide text is derived from it. [ ]: non-standard residue; d: D form. X1 = O=C1c2ccccc2[C@@](O)(CN(Cc2ccccc2)[*:1])N1CC(=O)[*:2]; NMeL = CN[C@@H](CC(C)C)C(=O)O

What was measured:
HepG-2 cells [1] = experiment: cells; settings: compound 8 vs compound 4
Description: (§1) The antitumor activity of the prepared cyclic peptides against human hepatocellular carcinoma cells (HepG-2), human cervical cancer cell lines (HeLa) and human breast cancer cells (MDA-MB-231) was examined by MMT assay, and the mouse fibroblast L929 cells were used as the model cells to evaluate the toxicity of cyclopeptides to normal cell lines. Due to the absence of an authentic standard, taxol was chosen as a control because it is a widely used chemotherapeutic drug for the treatment of various cancers, including liver cancer.
(§2) Samples were dissolved in DMSO and diluted into different concentrations ([…], 18.75, 25, 37.5, 50, 75, 100 and 250 μM) and stored at 4 °C. Cells in the logarithmic growth phase were digested with trypsin and then seeded in 96-well plates at a density of 2 × 10^4 cells/well in 100 μL of culture medium. The cells were treated with different concentrations of the tested compound, and a blank control group without the drug was also set up. Six wells were repeated for each dose. After 48 h of co-incubation, MTT solution (100 μL, 0.5 mg/mL) was added, followed by incubation for another 4 h. After discarding the supernatant, 100 μL of DMSO was added per well, and the absorbance (OD) values were measured at 490 nm using an enzyme marker. Cell viability was calculated by the formula: Cell viability (%) = As/Ab × 100% (where As is the absorbance value of the experimental group and Ab is the absorbance value of the blank group). The obtained data were processed using SPSS19 software to obtain IC50 values.

L929 cells = experiment: cells; settings: 48 h
Description: as §1, §2

[2] = system: lactate dehydrogenase in HepG-2 cells; experiment: Lactate dehydrogenase (LDH) activity assay in cells; type: cell-based, human; settings: 48 h
Description: The accumulation of lactate dehydrogenase can produce lactate metabolites and cause the deterioration of tumor cells. By inhibiting lactate dehydrogenase activity, the energy supply of tumor cells would be blocked, thus reducing their metastasis and progression. Therefore, in this paper, we also investigated the inhibitory activity of compound 8 on lactate dehydrogenase in HepG-2 cells. It has been known that LDH could catalyze lactic acid to generate pyruvate, which could react with 2,4-dinitrophenylhydrazine (DNPH) to form dinitrophenyl-pyruvate and form a reddish-brown product after reacting with an alkaline solution. The obtained product can be assessed by visible spectrophotometry. […]
Lactate dehydrogenase activity of HepG-2 cells treated with compound 8 was examined by using the Lactate Dehydrogenase Kit (Beijing Solarbio Science & Technology, Beijing, China) according to the instructions for use. […] Then the other reagents in the Lactate Dehydrogenase Kit (Beyotime Biotechnology, Shanghai, China) were added according to the instructions, and the absorption of the mixture was measured by the spectrophotometer. […] The absorption of the standard solution at 450 nm was measured to plot the standard curve. […]

HepG-2 cells [3] = experiment: Mitochondrial membrane potential, rhodamine 123 flow cytometry; type: cell-based, human; settings: control 44.9%
Method: A classical fluorescent dye, rhodamine 123, is selectively sequestered by active mitochondrial respiration, but is washed out in cells with decreased MMP, so that the dye fluorescence intensity reflects the level of mitochondrial activity and can be applied in the monitoring of MMP [23].
In this study, we have studied the change of MMP of HepG-2 cells after treatment with different concentrations (0, 5.5, 11 and 22 µM within 48 h) and different time periods (12, 24 and 48 h with 11 µM) of compound 8. Cells were stained with rhodamine 123 and analyzed by flow cytometry. […] The aforementioned analysis clearly discloses that the cyclic peptides can affect the mitochondrial membrane potential and induce apoptosis, consistent with the findings in cell cycle analysis.
Cells in the logarithmic phase were seeded in 6-well plates and incubated for 24 h. After refreshing the culture medium, different concentrations of compound 8 (0, 5.5, 11, 22 μM) were added and co-incubated for 48 h. Meanwhile, the cells were also treated with 11 μM of compound 8 within different time periods (12 h, 24 h, 48 h). Then, the cells were collected by trypsin digestion and washed with phosphate-buffered solution. After centrifuging (1000 r/min) for 5 min, the obtained cell precipitate was suspended in PBS (100 µL); then, 100 µL of rhodamine 123 (1 µM) was added and incubated for 20 min. The cells were centrifuged, resuspended in 600 µL PBS, and analyzed by flow cytometry (maximum excitation wavelength 507 and maximum emission wavelength 529 nm). At least 10,000 events were counted in the experiment.

HepG-2 cells [4] = type: cell-based, human; settings: 48 h; for Q4 cells (viable, lower left): human
Method: HepG-2 cells were treated with 0, 5.5, 11 and 22 µM of compound 8 and incubated for 48 h, then double-stained carefully by membrane-linked protein Annexin-V-fluorescein isothiocyanate (FITC) and propidium iodide (PI) for flow cytometry analysis. Generally, in the early stages of apoptosis, phosphatidylserine flips from the inner cell membrane to the surface of the cell membrane. […] Propidium iodide (PI) is a nucleic acid dye that can only cross the membrane of advanced apoptosis and necrotic cells, reddening the nucleus. Therefore, when the drug-treated cells are double-stained by the two fluorescent dyes, early and late apoptosis and necrotic cells can be clearly distinguished.
HepG-2 cells were seeded in a 6-well plate (2 × 10^5 cells per well). The different concentrations of compound 8 (0, 5.5, 11, 22 μg/mL) were added and incubated for 48 h to induce apoptosis. The collected cells were centrifuged (2000 r/min) for 5 min and resuspended in PBS (200 μL). Then, 5 μL of Annexin V-FITC was added and incubated for 10 min at room temperature away from light. Finally, 5 µL propidium iodide solution was added and incubated for 5 min away from light. The fluorescence intensity was detected by flow cytometry and analyzed by utilizing FlowJo_V10 software (FlowJo X 10.0.7r2, BD Biosciences, Franklin Lakes, NJ, USA).

CC(C)C[C@@H]1NC(=O)CN2C(=O)c3ccccc3[C@@]2(O)CN(Cc2ccccc2)C(=O)[C@H](CC(C)C)NC(=O)[C@H](CC(C)C)N(C)C(=O)[C@H](CC(C)C)NC(=O)[C@H](CC(C)C)NC1=O [Compound 8, 3-Hydroxy-isoindolinone-cyclo-Gly-Leu-N-Me-Leu-Leu-Leu-Leu] (cyclo(LL[NMeL]L[X1]L))
antitumor activity relative to compound 4 (HepG-2 cells [1]): eight times stronger | IC50 (L929 cells): > 400 µM | effect on lactate dehydrogenase activity [2]: significant decrease | mean mitochondrial fluorescence intensity (rhodamine 123) (HepG-2 cells [3]; 5.5 µM, 48 h): 27.1% | mean mitochondrial fluorescence intensity (rhodamine 123) (HepG-2 cells [3]; 11 µM, 12 h): 29.4% | mean mitochondrial fluorescence intensity (rhodamine 123) (HepG-2 cells [3]; 11 µM, 24 h): 24.3% | mean mitochondrial fluorescence intensity (rhodamine 123) (HepG-2 cells [3]; 11 µM, 48 h): 20.2% | mean mitochondrial fluorescence intensity (rhodamine 123) (HepG-2 cells [3]; 22 µM, 48 h): 14.3% | Q3 cells (apoptosis cells) (HepG-2 cells [4]; 22 μM): 32.4% | Q4 cells (viable, lower left) (HepG-2 cells [4]; 5.5 µM): 86.2% | Q4 cells (viable, lower left) (HepG-2 cells [4]; 11 µM): 77.3% | Q4 cells (viable, lower left) (HepG-2 cells [4]; 22 µM): 65.4%
